Experimental findings from ChEMBL document CHEMBL1201862, “PubChem BioAssay data set” (2004) are described below.

Molecules are shown by their SMILES.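 Cells were grown in 96-well plates and exposed to each compound for 48 hours at five concentrations; endpoints were interpolated linearly between bracketing concentrations, or set to the highest concentration if not reached. GI50 = concentration required for 50% inhibition of growth.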 Active and inactive are the calls of the source. Rule as the data show it: active = GI50 up to about 1.1 µM and inactive = higher.

Holding throughout (experiment): inhibition of tumour cell growth, NCI panel, 48 h
Test [1] deals with 786-0.
Test [2] concerns CAKI-1.
The test system of test [3] is COLO 205.
The subject of test [4] is DMS-273.
Test [5] has as its system IGROV-1.
Test [6] relates to Malme-3M.
Test [7] has as its system OVCAR-5.
In test [8] the test system is RPMI-8226.
Test [9] concerns RXF 393.
Test [10] relates to SK-MEL-28.
The subject of test [11] is SK-MEL-2.
Test [12] deals with SK-OV-3.
The test system of test [13] is SN12C.
In test [14] the test system is TK-10.
Test [15] has as its system SNB-75.
Test [16] deals with DU-145.
Test [17] concerns MCF7.
Test [18] relates to MDA-MB-231.
In test [19] the test system is MDA-MB-435.
In test [20] the test system is PC-3.

Regarding `CC(=O)OC1COC(N2C(=O)/C(=N\Nc3ccc([N+](=O)[O-])cc3)c3cc(Br)c([N+](=O)[O-])cc32)C(OC(C)=O)C1OC(C)=O` (centres undefined), the GI50 in test [1] was 42 µM (inactive); in [2] it was 50.4 µM (inactive); in [3], > 100 µM (inactive); in test [4], 35.2 µM (inactive); in [5] it was 26.2 µM (inactive); in [6] it was > 100 µM (inactive). In addition, the GI50 in test [7] is > 100 µM (inactive); in test [8], > 100 µM (inactive); in test [9] it was 15.5 µM (inactive); in [10], > 100 µM (inactive); in [11] it was > 100 µM (inactive); in test [12], 40.6 µM (inactive). The GI50 in test [13] and in test [14] was > 100 µM (inactive) in each case.

As to `CC(C)N1CN(C(C(=O)N[C@@H]2C(=O)N3C2SC(C)(C)C3C(=O)O)c2ccccc2)CSC1=S` (some centres undefined), the GI50 in [1] was > 100 µM (inactive); in [2], > 100 µM (inactive); in test [3] it was 46.9 µM (inactive); in [4], > 100 µM (inactive); in [5], > 100 µM (inactive); in [6] it was > 100 µM (inactive). Moreover, the GI50 was > 100 µM (inactive) in test [7]; 69.5 µM (inactive) in test [8]; > 100 µM (inactive) in [10]; > 100 µM (inactive) in test [11]; > 100 µM (inactive) in test [12]; > 100 µM (inactive) in test [13]. Also, the GI50 in [15] and in test [14] was > 100 µM (inactive) each time.

Regarding `C[N+](C)([O-])CCC=C1c2ccccc2CCc2ccccc21`, the GI50 is 4.79 µM (inactive) in [1]; 28.8 µM (inactive) in test [2]; 20 µM (inactive) in test [3]; 26 µM (inactive) in test [16]; 17.1 µM (inactive) in test [5]; 19.9 µM (inactive) in test [17]. For the same compound, the GI50 in test [18] is 30.7 µM (inactive); in test [19], 15.7 µM (inactive); in test [6], 18.5 µM (inactive); in [7] it was 33.3 µM (inactive); in test [20], 24.7 µM (inactive); in test [8] it was 11.5 µM (inactive). The GI50 in test [9] was 20.5 µM (inactive); in test [10], 33.5 µM (inactive); in test [11] it was 18.5 µM (inactive); in [12] it was 37.8 µM (inactive); in test [13], 24.2 µM (inactive); in [15], 29.3 µM (inactive). Besides, in [14], the GI50 is 53.2 µM (inactive).

As for `COc1cccc(/C=C2\CCC(CCN(C)C)(C3=CCCC3)C2=O)c1` (centres undefined), the GI50 was 14.7 µM (inactive) in test [1]; 12.3 µM (inactive) in [2]; 8.3 µM (inactive) in [3]; 14.4 µM (inactive) in test [4]; 15.8 µM (inactive) in test [5]; 15.6 µM (inactive) in [6]. The GI50 was 14.6 µM (inactive) in test [7]; 11.7 µM (inactive) in [8]; 8.73 µM (inactive) in test [9]; 15.9 µM (inactive) in test [10]; 15.9 µM (inactive) in [11]; 14.9 µM (inactive) in test [13]. For the same compound, the GI50 in [15] was 15.9 µM (inactive); in [14] it was 15.8 µM (inactive).

Regarding `CC(O)CN1c2ccccc2Sc2ccc(Cl)cc21` (centres undefined), the GI50 in test [1], in test [2], in test [3], in test [16], in [5] and in [17] was > 10 µM (inactive) each time. The GI50 in test [18], in test [19], in test [6], in test [7], in test [20] and in test [8] was > 10 µM (inactive) in each case. The GI50 in test [9], in test [10], in [11], in test [12], in [13] and in test [15] was > 10 µM (inactive) throughout. For the same compound, in test [14], the GI50 was > 10 µM (inactive).

In the case of `C=C1C(=O)O[C@@H]2[C@H]1C[C@H](I)[C@@]1(C)CC[C@H](O1)[C@](C)(I)CCCC(C)[C@@H]2O` (some centres undefined), the GI50 in test [1] is 1.49 µM (inactive); in test [2] it was 1.96 µM (inactive); in test [3], 2.21 µM (inactive); in test [16], 6.19 µM (inactive); in test [5], 2.01 µM (inactive); in test [17] it was 2.29 µM (inactive). Also, the GI50 in test [18] was 4.22 µM (inactive); in [19] it was 4.9 µM (inactive); in test [6], 2.48 µM (inactive); in test [7], 8.69 µM (inactive); in test [20] it was 6.03 µM (inactive); in [8], 2.61 µM (inactive). The GI50 was 1.69 µM (inactive) in test [9]; 6.11 µM (inactive) in test [10]; 12.9 µM (inactive) in test [11]; 16.6 µM (inactive) in [12]; 4.98 µM (inactive) in test [13]; 2.33 µM (inactive) in [15]. The GI50 in test [14] was 1.75 µM (inactive).

As to `CNCC(SC)c1ccc(O)c(O)c1` (centres undefined), the GI50 in test [1] was 18.6 µM (inactive); in test [2] it was 20.5 µM (inactive); in [3], 17.1 µM (inactive); in test [16] it was 17.9 µM (inactive); in test [5], 34.3 µM (inactive); in test [17], 29.2 µM (inactive). In addition, the GI50 in test [18] was 28.2 µM (inactive); in test [19], 32.1 µM (inactive); in test [6], 17.5 µM (inactive); in test [7] it was > 100 µM (inactive); in test [20], 69.2 µM (inactive); in test [8] it was 21.1 µM (inactive). For the same compound, the GI50 in [9] is 33.6 µM (inactive); in [10] it was 53.2 µM (inactive); in [11], > 100 µM (inactive); in [12] it was > 100 µM (inactive); in test [13], 21.5 µM (inactive); in test [15], 28.8 µM (inactive). Moreover, the GI50 in test [14] is 19.1 µM (inactive).

Turning to `O=C1Oc2ccccc2C1C/C(=N\Nc1ccccc1)c1ccccc1O` (centres undefined), the GI50 in test [1] was 36.1 µM (inactive); in test [2] it was 25.6 µM (inactive); in [3], 15 µM (inactive); in test [16], 40.7 µM (inactive); in [5], 17 µM (inactive); in test [17], 36.5 µM (inactive). Also, the GI50 in [18] was 28.9 µM (inactive); in [19] it was 27.2 µM (inactive); in [6], 41.3 µM (inactive); in test [7], > 100 µM (inactive); in test [20] it was 30.2 µM (inactive); in test [8] it was 45.2 µM (inactive). The GI50 in test [9] was 53.7 µM (inactive); in test [10], 33.7 µM (inactive); in test [11], 35.5 µM (inactive); in [12], 62.1 µM (inactive); in [13] it was 42 µM (inactive); in test [15], 56.8 µM (inactive). The GI50 in [14] was 48.9 µM (inactive).

On to `CCCCCCCCCCCCC(O)[C@H]1CC[C@H](C(O)CCCCCC(=O)CCCCC2CC(C(C)=O)C(=O)O2)O1` (some centres undefined), for which the GI50 in test [1] is 12.9 µM (inactive); in test [2], 17.1 µM (inactive); in test [3], 6.3 µM (inactive); in test [16], > 43.6 µM (inactive); in test [5], 11 µM (inactive); in [17], 3.47 µM (inactive). Further, the GI50 in [18] was 11 µM (inactive); in [19] it was 8.34 µM (inactive); in [6] it was 11.5 µM (inactive); in test [7] it was 18.4 µM (inactive); in test [20], 4.95 µM (inactive); in [8], 1.65 µM (inactive). Moreover, the GI50 in test [9] was 7.6 µM (inactive); in [10], 16.9 µM (inactive); in [11], 13.6 µM (inactive); in test [12], 9.68 µM (inactive); in [13], 7.24 µM (inactive); in test [15], 10.5 µM (inactive). Further, the GI50 in test [14] is 14.1 µM (inactive).

For `COC1=CC(=O)c2c(cc(COP(=O)(N(C)CCBr)N(C)CCBr)n2C)C1=O`, the GI50 in test [1] is < 0.0204 µM (active); in [2], < 0.0182 µM (active); in [3] it was 0.865 µM (active); in test [16], < 0.0235 µM (active); in test [5], 2.31 µM (inactive); in test [17] it was < 0.0182 µM (active). Also, the GI50 in test [18] is 3.91 µM (inactive); in [19], 1.09 µM (active); in [6], 0.906 µM (active); in [7], 0.583 µM (active); in test [20], 6.82 µM (inactive); in [8], 0.385 µM (active). For the same compound, the GI50 is 0.229 µM (active) in test [9]; 1.59 µM (inactive) in test [10]; 1.89 µM (inactive) in test [11]; 0.918 µM (active) in test [12]; < 0.0272 µM (active) in [13]; 0.102 µM (active) in test [15]. Further, in test [14], the GI50 is 0.247 µM (active).

For the compound `Nc1ncn(C/C=C/c2ccccc2)c2ncnc1-2`, the GI50 in test [1], in [2], in [3], in test [16], in [5] and in test [17] was > 100 µM (inactive) throughout. The GI50 in test [18], in test [19], in test [6], in test [7], in test [20] and in test [8] was > 100 µM (inactive) throughout. Moreover, the GI50 in [9] was > 100 µM (inactive); in [10], > 100 µM (inactive); in test [11], > 100 µM (inactive); in test [12], > 100 µM (inactive); in test [13], > 100 µM (inactive); in test [15] it was 70.3 µM (inactive). Besides, in [14], the GI50 was > 100 µM (inactive).
